By Ki is commonly meant a dissociation constant, usually derived from enzyme kinetics or from competition with a known ligand. A higher Ki goes with weaker binding. One may read the inhibition as how much of the control response was suppressed. The IC50 is the concentration that gives 50% inhibition. A low value points to greater potency in that assay. A word on the ED50: it is the dose at which the effect has come halfway, by size or by number of responders. Higher therefore signals a need for a large dose. By bioavailability is commonly meant dose-corrected exposure relative to a reference, in per cent. Lower therefore signals poor availability.

Series [1] concerns the target T1, Prothrombin (Homo sapiens, UniProt P00734). Description: Binding affinity to human thrombin.
Series [2] has as its target T2, Cathepsin G (Homo sapiens) (UniProt P08311).
T2 sequence (whole entry): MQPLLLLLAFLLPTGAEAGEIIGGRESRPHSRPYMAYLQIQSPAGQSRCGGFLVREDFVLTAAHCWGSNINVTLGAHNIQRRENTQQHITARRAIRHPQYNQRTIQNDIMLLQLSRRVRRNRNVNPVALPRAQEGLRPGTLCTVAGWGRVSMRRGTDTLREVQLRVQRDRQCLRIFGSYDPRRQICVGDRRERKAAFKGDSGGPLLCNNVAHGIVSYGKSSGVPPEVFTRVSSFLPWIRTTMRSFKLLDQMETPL
Description: Inhibitory activity against human Cathepsin G at 100 uM; Not active.

The target in series [3] is T1, Prothrombin. Description: Binding activity against human alpha thrombin.
The test system of a further series is Oryctolagus cuniculus. Description: In vivo antithrombotic activity using rabbit thrombosis model. Format: functional.
For another series, the target named is Tryptase (Homo sapiens, UniProt Q9BZJ3+Q15661+Q9NRR2). In words: Binding affinity against human alpha tryptase. The series is classed as protein assay.
Series [4] in a line: Oral bioavailability. Format: ADME, organism-based. Conditions: eutheria, in vivo.
The target in another series is T3, Cathepsin G (Homo sapiens, UniProt P08311).
T3 sequence (P08311 whole entry): T2 sequence (whole entry)
Description: Inhibitory activity against human Cathepsin G.

The next series concerns Canis familiaris. In words: In vivo antithrombotic activity using canine thrombosis model. Format: functional. Conditions: Canis lupus familiaris.

As to `N=C(N)NCCC[C@@H]1NC(=O)C2CCCN2C(=O)[C@@H](NC(=O)Cc2ccccc2)CNC(=O)/C=C/[C@H](Cc2ccc(O)cc2)NC(=O)[C@@H](Cc2ccccc2)NC(=O)C1=O` (stereo partly drawn), the Ki at Prothrombin [1] is 3.1 nM.

Consider `O=C(c1cccc2ccccc12)C(c1cccc2ccccc12)P(=O)(O)O` (stereo not drawn), for which, in series [2], the inhibition was < 50%.

Regarding `CN[C@@H](C(=O)N1CCC[C@H]1C(=O)N[C@@H](CCCN=C(N)N)C(=O)c1nc2ccccc2s1)C(c1ccccc1)c1ccccc1`, the IC50 at Prothrombin [3] turned out to be 4.5 nM. On Prothrombin [1], this molecule registered a Ki of 0.00065 nM.

With `O=P(O)(O)C(c1cccc2ccccc12)C(O)c1ccc2ccccc2c1` (stereo not drawn), the inhibition in series [2] was < 50%.

As for `O=P(O)(O)C(c1cccc2ccccc12)S(=O)(=O)c1ccc2ccccc2c1` (stereo not drawn), the inhibition in series [2] was < 50%.

Turning to `O=C(c1ccc2ccccc2c1)C(c1ccccc1)P(=O)(O)O` (stereo not drawn), the inhibition in series [2] is < 50%.

As for `O=P(O)(O)C(Cc1ccc2ccccc2c1)c1cccc2ccccc12` (stereo not drawn), the inhibition in series [2] is < 50%.

`CN[C@H](Cc1ccccc1)C(=O)N1CCC[C@H]1C(=O)N[C@@H](CCCN=C(N)N)C(=O)c1nc2ccccc2o1` yielded an inhibitory constant (Ki) on Prothrombin [1] of 6.2 nM.

In the series with Oryctolagus cuniculus, `CN[C@H](Cc1ccccc1)C(=O)N1CCC[C@H]1C(=O)N[C@H](C=O)CCCNC(=N)N` returned an ED50 of 0.13 mg/kg.

On Prothrombin [1], `N=C(N)NCCC[C@@H]1NC(=O)C2CCCN2C(=O)[C@@H](NCCc2ccccc2)CNC(=O)/C=C/[C@H](Cc2ccc(O)cc2)NC(=O)[C@@H](Cc2ccccc2)NC(=O)C1=O` (stereo partly drawn) gave a Ki of 1.5 nM.

Molecule `N=C(N)NCCC[C@@H]1NC(=O)C2CCCN2C(=O)[C@@H](NC=O)CNC(=O)/C=C/[C@H](Cc2ccc(O)cc2)NC(=O)[C@@H](Cc2ccccc2)NC(=O)C1=O` (stereo partly drawn) gave a Ki at Prothrombin [1] of 4.1 nM.

For the molecule `O=C(Cc1ccc2ccccc2c1)C(c1cccc2ccccc12)P(=O)(O)O` (stereo not drawn), the inhibition in series [2] is < 50%.

On Tryptase, `N=C(N)NCCC[C@H](NC(=O)C1CCCC1)C(=O)c1nc2ccccc2s1` returned a Ki of 88 nM.

As to `N=C(N)NCCC[C@@H]1NC(=O)C2CCCN2C(=O)[C@@H](Cc2ccccc2)NC(=O)CCCCCCCNC(=O)C1=O` (stereo partly drawn), the affinity on Prothrombin [1] corresponds to a Ki of 24 nM.

With `CC(C(=O)c1ccc2ccccc2c1)(c1cccc2ccccc12)P(=O)(O)O` (stereo not drawn), the inhibition in series [2] was < 50%.

Molecule `CN[C@H](Cc1ccccc1)C(=O)N1CCC[C@H]1C(=O)N[C@@H](CCCN=C(N)N)C(=O)c1nc2ccccc2s1` had a bioavailability in series [4] of 1%. Besides, in the series with Oryctolagus cuniculus, the ED50 was determined as 0.29 mg/kg. In addition, the Ki at Prothrombin [1] was 0.2 nM.

`N=C(N)NCCC[C@@H]1NC(=O)[C@@H]2CCCN2C(=O)[C@@H](NC=O)NC(=O)CCCCCCNC(=O)C1=O`: on Prothrombin [1], the affinity, expressed as Ki, was 260 nM.

`CN[C@H](Cc1ccccc1)C(=O)N1CCC[C@H]1C(=O)N[C@@H](CCCN=C(N)N)C(=O)c1nc(O)c2ccccc2n1` came in with a Ki on Prothrombin [1] of 15 nM. Compared with the last molecule, the Ki is about 17-fold lower.

On Prothrombin [1], `CN[C@H](Cc1ccccc1)C(=O)N1CCC[C@H]1C(=O)N[C@@H](CCCN=C(N)N)C(=O)c1nccn1C` displayed a Ki of 200 nM. This Ki lies about 13-fold higher than the previous one.

At Cathepsin G, `CN(CC(=O)NCC(c1ccccc1)c1ccccc1)C(=O)c1cc2ccccc2cc1C(=O)C(c1cccc2ccccc12)P(=O)(O)O` (stereo not drawn) gave an IC50 of 500 nM. In other words, the sub-micromolar range.

`CC(=O)N1C[C@H](O)C[C@H]1C(=O)N[C@@H](CCCN=C(N)N)C(=O)c1nc2ccccc2s1` returned an inhibition constant (Ki) at Tryptase of 10 nM.

On Cathepsin G, `O=C(c1ccc2ccccc2c1)C(c1cccc2ccccc12)P(=O)(O)O` (stereo not drawn) displayed an IC50 of 4100 nM. This lies in the single-digit micromolar range.

In turn, `CN[C@H](Cc1ccccc1)C(=O)N1CCC[C@H]1C(=O)N[C@@H](CCCNC(=N)N)C(=O)c1nccs1` had a Ki on Prothrombin [1] of 2.1 nM.

`CN[C@H](Cc1ccccc1)C(=O)N1CCC[C@H]1C(=O)N[C@@H](CCCNC(=N)N)C(=O)c1nc2ccccc2[nH]1` gave an inhibition constant Ki at Prothrombin [1] of 9.6 nM.

Turning to `CN(CC(=O)NCCc1ccccc1)C(=O)c1cc2ccccc2cc1C(=O)C(c1cccc2ccccc12)P(=O)(O)O` (stereo not drawn), half-maximal inhibition against Cathepsin G (IC50) was put at 1300 nM.

Consider `CN(Cc1ccccc1)C(=O)c1cc2ccccc2cc1C(=O)C(c1cccc2ccccc12)P(=O)(O)O` (stereo not drawn), for which half-maximal inhibition on Cathepsin G (IC50) required 1000 nM.

In turn, `CN[C@H](Cc1ccccc1)C(=O)N1CCC[C@H]1C(=O)N[C@@H](CCCNC(=N)N)C(=O)c1nc2ccc(C(=O)O)cc2s1` registered a bioavailability in series [4] of 3%. The 50% effective dose (ED50) came out at 0.3 mg/kg in the series with Oryctolagus cuniculus and 0.47 mg/kg in the series with Canis familiaris.

Take `O=C(c1ccc2ccccc2c1)C(c1ccc2ccccc2c1)P(=O)(O)O` (stereo not drawn): in series [2], the inhibition was < 50%.
